# Results from PubChem BioAssay (NCI).
#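 Growth conditions: 96-well plates. Treatment: test compound, 48 hours, 5 concentrations. Analysis: linear interpolation between bracketing concentrations; unreached endpoints set to highest concentration. GI50 = concentration required for 50% inhibition of growth. Definition used: TGI = concentration required for complete inhibition of growth.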
# Experiments:
# Experiment in all cases: NCI anticancer screen, dose series, 48 h
# NCI-H23 lung = test system: NCI-H23 lung
# A549 NSCLC = test system: A549 NSCLC
# HCC-2998 colon = test system: HCC-2998 colon
# UACC-257 melanoma = test system: UACC-257 melanoma
# SF-295 CNS = test system: SF-295 CNS
# OVCAR-3 ovarian = test system: OVCAR-3 ovarian
# SR leukemia = test system: SR leukemia
# NCI-H460 lung = test system: NCI-H460 lung
# A498 renal = test system: A498 renal
# SF-268 CNS = test system: SF-268 CNS
Compound,TGI (NCI-H23 lung) [µM],TGI (A549 NSCLC) [µM],TGI (HCC-2998 colon) [µM],TGI (UACC-257 melanoma) [µM],TGI (SF-295 CNS) [µM],TGI (OVCAR-3 ovarian) [µM],TGI (SR leukemia) [µM],TGI (NCI-H460 lung) [µM],GI50 (NCI-H23 lung) [µM],GI50 (A498 renal) [µM],TGI (A498 renal) [µM],GI50 (HCC-2998 colon) [µM],GI50 (UACC-257 melanoma) [µM],GI50 (SF-268 CNS) [µM],TGI (SF-268 CNS) [µM],GI50 (SF-295 CNS) [µM],GI50 (OVCAR-3 ovarian) [µM],GI50 (SR leukemia) [µM],GI50 (NCI-H460 lung) [µM]
CC[C@@H]1ON(C)[C@H]2CN(C)C(=O)[C@@H]12,> 100,> 100,> 100,> 100,> 100,> 100,> 100,> 100,,,,,,,,,,,
c1ccc(N2N=C(c3cccc(Nc4ccncc4)c3)CC2c2ccc3c(c2)OCO3)cc1 (stereo not drawn),4.04,,3.36,4.09,3.51,2.92,2.89,3.18,1.94,1.24,5.58,1.84,2,1.79,3.75,1.87,1.48,0.955,1.71
C=C(C)C(=O)O[C@H]1CC2=C[C@@H](C[C@@]3(C)O[C@@H]3[C@H]3OC(=O)C(=C)[C@@H]31)OC2=O,6.59,27.1,9.82,5.63,11.9,3.74,,10.6,,,9.06,,,0.34,2.56,,,,
COc1ccc2c(c1O)-c1cc(O)cc3c1[C@@H](C2)N(C)CC3,257,138,139,138,145,84.2,,150,,,125,,,,229,,,,
COc1cc(C2S/C(=C/c3ccccc3)C(=O)N2c2ccc(NC(C)=O)cc2)cc(OC)c1OC (stereo not drawn),66.8,> 100,52.3,> 100,> 100,,> 100,,,,67.3,,,,83.3,,,,
COc1nc2ccc(COc3ccc(C(=O)NC(CCC(=O)O)C(=O)O)cc3)cc2nc1OC (stereo not drawn),> 10,> 10,> 10,> 10,> 10,> 10,> 10,> 10,,,,,,,> 10,,,,
NC(=S)N/N=C/c1nccc2ccccc12,6.42,> 100,> 100,,2.03,,11.5,4.94,,,> 100,,,,4.04,,,,
Cc1nc2c(c(=O)[nH]1)S/C(=C(/C#N)c1nc3ccccc3[nH]1)N2c1ccccc1,> 100,> 100,> 100,> 100,> 100,> 100,> 100,> 100,,,> 100,,,,> 100,,,,
O=C1C(Cl)N(c2cccc(Cl)c2)C1c1c[nH]c2ccccc12 (stereo not drawn),> 100,> 100,,> 100,> 100,> 100,> 100,> 100,,,,,,,> 100,,,,
